Measurements as given in patent US20230348376A1 (TEIJIN PHARMA LIMITED, priority 2020, published 2023).
Where two headings read alike, the source gives them in different places.

What was measured:
[1] = system: rat oligodendrocyte progenitor cells; test: Promotive activity of rat oligodendrocyte progenitor cell differentiation-2 (immunostaining of MBP); format: cell-based; conditions: vitamin D derivative 2 μM, T3 30 nM, 4 days
Procedure, shortened: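 Vitamin D derivatives scored as symbols for promoting differentiation, read out by MBP immunostaining. OPCs taken from supernatant after about 22 h shaking (37 °C, 200 rpm) in separation medium.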

human VDR = biological target: T1, human VDR (Homo sapiens, UniProt P11473); test: Evaluation of VDR transcription activity in human osteoblasts (HOS cells), luciferase reporter; conditions: Activity (EC50, VDR transcription activity), HOS cells transfected with human VDR, human RXRα and DR3 luciferase reporter; 21 hours
T1 sequence (P11473 1-427): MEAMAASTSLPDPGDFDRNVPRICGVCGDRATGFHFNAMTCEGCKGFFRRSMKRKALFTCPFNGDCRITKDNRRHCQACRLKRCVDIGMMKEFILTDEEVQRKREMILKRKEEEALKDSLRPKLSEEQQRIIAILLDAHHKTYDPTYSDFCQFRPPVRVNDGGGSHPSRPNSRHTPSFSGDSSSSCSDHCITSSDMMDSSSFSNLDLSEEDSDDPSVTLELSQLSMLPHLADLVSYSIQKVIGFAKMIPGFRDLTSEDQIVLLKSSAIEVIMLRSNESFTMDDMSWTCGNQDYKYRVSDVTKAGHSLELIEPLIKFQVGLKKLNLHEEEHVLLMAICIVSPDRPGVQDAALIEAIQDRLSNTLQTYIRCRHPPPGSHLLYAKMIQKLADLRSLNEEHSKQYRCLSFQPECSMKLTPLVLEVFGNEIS
T1 sequence (P19793 1-462 partner): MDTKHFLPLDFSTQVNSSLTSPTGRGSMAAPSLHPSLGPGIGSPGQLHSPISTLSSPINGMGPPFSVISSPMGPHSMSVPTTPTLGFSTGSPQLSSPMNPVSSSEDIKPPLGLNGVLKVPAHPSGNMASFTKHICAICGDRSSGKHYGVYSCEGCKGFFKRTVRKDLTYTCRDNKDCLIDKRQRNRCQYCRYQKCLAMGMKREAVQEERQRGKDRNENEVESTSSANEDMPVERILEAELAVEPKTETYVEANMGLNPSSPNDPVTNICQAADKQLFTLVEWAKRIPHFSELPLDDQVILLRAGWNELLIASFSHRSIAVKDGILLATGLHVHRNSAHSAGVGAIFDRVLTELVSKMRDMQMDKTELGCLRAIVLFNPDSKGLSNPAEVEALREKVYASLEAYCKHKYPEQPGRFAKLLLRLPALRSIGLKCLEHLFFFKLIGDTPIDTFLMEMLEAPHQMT

[2] = Evaluation of brain penetration in mice (blood and brain concentration at brain Cmax); format: in vivo, mouse; conditions: 1 mg/kg single oral dose, C57BL/6J mice; for Concentration in blood (mean ± SD) at brain Cmax / Concentration in brain (mean ± SD) at brain Cmax: n=3; for Kp: male, mouse, brain/plasma, read-out: Concentration in brain/in blood ratio at brain Cmax
Description: The administration solution was administered orally to C57BL/6J mice (8 weeks old, male, n=3) at a single dose (1 mg/kg). Mice were euthanized at 6 points of 0.25, 0.5, 1, 2, 4, and 8 hours after administration, and plasma and brain sampling were performed. After preparing a homogenate from the collected brain using Tissue Lyser II (QIAGEN #85300), acetonitrile was added to the homogenate and the homogenate was centrifuged (12000 rpm, 5 minutes) to extract the administered test compound contained in the brain. Similarly, the plasma was subjected to addition of acetonitrile and centrifugal separation to extract the administered test compound contained in the plasma. Each extracted sample was subjected to measurement of the concentration of administered test compound using LC/MS/MS (SHIMADZU UFLC/MS/MS (8050)).
Test 2 [0.2 mg/kg Administration Study] […] The administration solution was administered orally to C57BL/6J mice (8 weeks old, male, n=3) at a single dose (0.2 mg/kg). Mice were euthanized at 6 points of 0.25, 0.5, 1, 2, 4, and 8 hours after administration, and plasma and brain sampling were performed. After preparing a homogenate from the collected brain using Tissue Lyser II (QIAGEN #85300), acetonitrile was added to the homogenate and the homogenate was centrifuged (12000 rpm, 5 minutes) to extract the administered compound contained in the brain. Similarly, the plasma was subjected to addition of acetonitrile and centrifugal separation to extract the administered test compound contained in the plasma. Each extracted sample was subjected to measurement of the concentration of administered test compound using LC/MS/MS (SHIMADZU UFLC/MS/MS (8050)).

SMILES | Mean (number of MBP-positive cells/number of Hoechst33342-positive cells) ([1]; Test 1) | EC50 (human VDR) [µM] | Concentration in blood (mean ± SD) at brain Cmax [2] [nM] | Concentration in brain (mean ± SD) at brain Cmax [2] [pmol/g] | Kp ([2]; C57BL/6J, po, 1 mg/kg) | Mean (number of MBP-positive cells/number of Hoechst33342-positive cells) ([1]; Test 2) | Kp [2]
C=C1/C(=C\C=C2/CCC[C@]3(C)[C@@H]([C@H](C)CN4CC[C@@H](CC(F)F)C4)CC[C@@H]23)C[C@@H](O)C[C@@H]1O [Compound B037, (1R,3S,Z)-5-(2-((1R,3aS,7aR,E)-1-((S)-1-((S)-3-(2,2-difluoroethyl)pyrrolidin-1-yl)propan-2-yl)-7a-methyloctahydro-4H-inden-4-ylidene)ethylidene)-4-methylenecyclohexane-1,3-diol] | 0.49 | 0.01 to 0.1 | 88 ± 19 | 74 ± 17 | 0.84 | – | –
C=C1[C@H](O)CC(=C/C=C2\CCC[C@]3(C)[C@@H]([C@H](C)CN4CC[C@@H](CC(F)F)C4)CC[C@@H]23)C[C@H]1O [Compound B041, (1R,3R)-5-(2-((1R,3aS,7aR,E)-1-((S)-1-((S)-3-(2,2-difluoroethyl)pyrrolidin-1-yl)propan-2-yl)-7a-methyloctahydro-4H-inden-4-ylidene)ethylidene)-2-methylenecyclohexane-1,3-diol] | 0.56 | 0.001 to 0.01 | 207 ± 59 | 317 ± 19 | 1.53 | – | –
C[C@H](CN1CC[C@H](CC(F)F)C1)[C@H]1CC[C@H]2/C(=C/C=C3C[C@@H](O)C[C@H](O)C3)CCC[C@]12C [Compound B042, (1R,3R)-5-(2-((1R,3aS,7aR,E)-1-((S)-1-((R)-3-(2,2-difluoroethyl)pyrrolidin-1-yl)propan-2-yl)-7a-methyloctahydro-4H-inden-4-ylidene)ethylidene)cyclohexane-1,3-diol] | 0.62 | 0.01 to 0.1 | 79 ± 7 | 60 ± 5 | 0.75 | 0.53 | –
C[C@H](CN1CC[C@H](OCC(F)F)C1)[C@H]1CC[C@H]2/C(=C/C=C3C[C@@H](O)C[C@H](O)C3)CCC[C@]12C [Compound B057, (1R,3R)-5-(2-((1R,3aS,7aR,E)-1-((S)-1-((S)-3-(2,2-difluoroethoxy)pyrrolidin-1-yl)propan-2-yl)-7a-methyloctahydro-4H-inden-4-ylidene)ethylidene)cyclohexane-1,3-diol] | – | 0.1 to 1 | 271 ± 16 | 141 ± 8 | 0.52 | 0.57 | –
C[C@H](CN1CC[C@@H](CCC(F)F)C1)[C@H]1CC[C@H]2/C(=C/C=C3C[C@@H](O)C[C@H](O)C3)CCC[C@]12C [Compound B064, (1R,3R)-5-(2-((1R,3aS,7aR,E)-1-((S)-1-((R)-3-(3,3-difluoropropyl)pyrrolidin-1-yl)propan-2-yl)-7a-methyloctahydro-4H-inden-4-ylidene)ethylidene)cyclohexane-1,3-diol] | – | 0.1 to 1 | 72 ± 11 | 38 ± 12 | 0.53 | 0.61 | –
C=C1[C@H](O)CC(=C/C=C2\CCC[C@]3(C)[C@@H]([C@H](C)CN4CCC(C(C)(F)F)CC4)CC[C@@H]23)C[C@H]1O [Compound C055, (1R,3R)-5-(2-((1R,3aS,7aR,E)-1-((S)-1-(4-(1,1-difluoroethyl)piperidin-1-yl)propan-2-yl)-7a-methyloctahydro-4H-inden-4-ylidene)ethylidene)-2-methylenecyclohexane-1,3-diol] | – | 0.01 to 0.1 | 190 ± 23 | 338 ± 36 | 1.78 | 0.48 | –
C[C@H](CN1CCOC2(CC2)C1)[C@H]1CC[C@H]2/C(=C/C=C3C[C@@H](O)C[C@H](O)C3)CCC[C@]12C [Compound D019, (1R,3R)-5-(2-((1R,3aS,7aR,E)-1-((S)-1-(4-oxa-7-azaspiro[2.5]octan-7-yl)propan-2-yl)-7a-methyloctahydro-4H-inden-4-ylidene)ethylidene)cyclohexane-1,3-diol] | – | 0.01 to 0.1 | 280 ± 53 | 811 ± 163 | – | 0.57 | 2.89
